The values below come from patent publication US10874636B2, “Application of substituted cinnamamide derivatives in preparation of anti-anxiety medication” (TASLY PHARMACEUTICAL GROUP CO., LTD., priority 2016, dated 2020).

The subject of test [1] is mice. Description: Elevated plus-maze test for mice. It counts as in vivo, ICR male mice. The following applies: 10 mg/kg intragastric for 1 week; in words. The procedure: 247 ICR male mice aged 6-8 weeks with the weight of 18-22 g were taken and fed adaptively for 1 week. Then, these mice were evenly divided, at random, into 19 groups based on their weights. Intragastric administration was conducted once a day according to the drugs and dosages listed in Table 1, which lasted for 7 consecutive days. 20 minutes after administration on the 7th day, the elevated plus-maze test was conducted.
The elevated plus-maze (EPM) for mice were composed of two opposite open arms (50 cm×10 cm) and two opposite enclosed arms (50 cm×10 cm×40 cm), wherein upper portions of the enclosed arms were not capped, an open portion of 10 cm×10 cm was located in the middle of the maze, and the maze was 50 cm away from the ground. The test was conducted in a quite environment at a time period ranging from 13:00 to 18:00.
The open-arms entries (OE) and enclosed-arms entries, as well as the residence time in two arms, of the mice, within 5 minutes, were recorded respectively, and the percentage of the open-arms entries (OE %) and that of the open-arms time (OT %) for each group of mice with respect to the total entries into the two arms and the total residence time in the two arms therein were calculated respectively.
Analysis was conducted using SPSS 11.5 software, and data were represented by x±S, the significance of differences between groups was compared using the analysis of variance, differences were significant while P was less than 0.05.

Test [2] relates to rats. Description: Drinking conflict experiment for rats (Vogel test). It counts as in vivo, SD male rats. Particulars: for Effect on water licks of the rats during the punished session compared with the solvent control groups: 5 mg/kg intragastric for 10 days, in words; for Water licks of rats during punished session: 5 mg/kg intragastric once a day for 10 days, test half an hour after final administration, 3 minutes, 0.3 mA, x±S. The method, then: 230 SD male rats with the weight of 180-220 g were taken and fed adaptively for 1 week. Then, these rats were divided, at random, into 19 groups based on their weights, 12-13 rats in each group. Intragastric administration was conducted one a day according to the drugs and dosages listed in Table 2, which lasted for 10 consecutive days. Water deprivation 48 hours before the final administration, and non-punitive drinking training was conducted on the 9th day; on the 10th day, half an hour after the final intragastric administration of all the groups, the punitive experimental test was conducted.
On the first stage (non-punitive drinking training): after water deprivation for 24 hours, the rats were placed in operation boxes individually to explore thoroughly, until they found bottle mouths and began to lick water, water licks of the rats within 3 minutes under the conditions of no electric shock (the condition was set as follows: the strength of electric shock was 0 mA) were automatically recorded by counters, and rats whose water licks were less than 300 were eliminated. On the second stage (punitive experiment): the above rats which were not eliminated were placed in the operation boxes after continuing the water deprivation for 24 hours (48 hours in total). The rats could find the bottle mouths rapidly and begin to lick water, the instruments began to time automatically and imparted one electric shock (the ratio of licks to the number of electric shocks was 20:1) while the water licks reached to 20, wherein the strength of electric shocks was 0.3 mA, lasting for 2 seconds, but these rats may control the length of the time for which they were electrically shocked by keeping away from the bottle mouths. Water licks of the rats during the punished session (3 minutes) were recorded.
Observational indexes of the Vogel drinking conflict model: water licks of the rats during the punished session.

As to `CC(C)CNC(=O)/C=C/c1cc2c(c(C(F)(F)F)c1)OCO2` [II-5, 5′-trifluoromethyl-3′,4′-methylenedioxy cinnamic acid isobutylamide], in test [1], the “Effect on open-arms entries of the mice compared with the solvent control groups” value is listed as “increase the open-arms entries of the mice” and the “Effect on open-arms time of the mice compared with the solvent control groups” value is on record as “prolong their open-arms time”. Besides, in test [2], the “Effect on water licks of the rats during the punished session compared with the solvent control groups” value is on record as “increase water licks of the rats during the punished session” and the “Water licks of rats during punished session” value is reported as 469.11 ± 50.51.
With “N-methyl-(5′-trifluoromethyl-3′,4′-methylenedioxy)-amphetamine hydrochloride [II-16]”, in test [1], the “Effect on open-arms entries of the mice compared with the solvent control groups” value is “increase the open-arms entries of the mice” and the “Effect on open-arms time of the mice compared with the solvent control groups” value is listed as “prolong their open-arms time”. Besides, in test [2], the “Effect on water licks of the rats during the punished session compared with the solvent control groups” value was “increase water licks of the rats during the punished session” and the “Water licks of rats during punished session” value is given as 406.56 ± 65.38.
Turning to `CC(C)CNC(=O)/C=C/c1cc(I)c2c(c1)OCO2` [II-3, 5′-iodine-3′,4′-methylenedioxy cinnamic acid isobutylamide], in test [1], the “Effect on open-arms entries of the mice compared with the solvent control groups” value was “increase the open-arms entries of the mice” and the “Effect on open-arms time of the mice compared with the solvent control groups” value is on record as “prolong their open-arms time”. In test [2], the “Effect on water licks of the rats during the punished session compared with the solvent control groups” value is “increase water licks of the rats during the punished session” and the “Water licks of rats during punished session” value was determined as 483.75 ± 59.05.
On to `CC(C)CNC(=O)c1cc(O)c(O)c(C(F)(F)F)c1` [III-11, 3,4-dihydroxyl-5-trifluoromethyl-benzoic acid isobutylamide], for which, in test [1], the “Effect on open-arms entries of the mice compared with the solvent control groups” value was “increase the open-arms entries of the mice” and the “Effect on open-arms time of the mice compared with the solvent control groups” value was “prolong their open-arms time”. In addition, in test [2], the “Effect on water licks of the rats during the punished session compared with the solvent control groups” value is listed as “increase water licks of the rats during the punished session” and the “Water licks of rats during punished session” value is 361.13 ± 38.38.
The matching figures for `COc1cc(/C=C/C=C/C(=O)NCC(C)C)cc(C(F)(F)F)c1OC` [III-13, 5-(5′-trifluoromethyl-3′,4′-dimethoxyphenyl) pentadienoic acid isobutylamide]: “increase the open-arms entries of the mice”, “prolong their open-arms time”, “increase water licks of the rats during the punished session” and 375.67 ± 58.13.
Consider `CC(C)CNC(=O)/C=C/C=C/CCc1cc2c(c(C(F)(F)F)c1)OCO2` [II-14, (2E, 4E)-N-isobutyl-7-(5′-trifluoromethyl-3′,4′-methylenedioxyphenyl)-2,4-heptadiene amide], for which, in test [1], the “Effect on open-arms entries of the mice compared with the solvent control groups” value is given as “increase the open-arms entries of the mice” and the “Effect on open-arms time of the mice compared with the solvent control groups” value is on record as “prolong their open-arms time”. Moreover, in test [2], the “Effect on water licks of the rats during the punished session compared with the solvent control groups” value is given as “increase water licks of the rats during the punished session” and the “Water licks of rats during punished session” value came out at 368.00 ± 47.38.
Regarding `CC(C)CNC(=O)/C=C/c1cc(Cl)c2c(c1)OCO2` [II-4, 5′-chlorine-3′,4′-methylenedioxy cinnamic acid isobutylamide], in test [1], the “Effect on open-arms entries of the mice compared with the solvent control groups” value was “increase the open-arms entries of the mice” and the “Effect on open-arms time of the mice compared with the solvent control groups” value is reported as “prolong their open-arms time”. Moreover, in test [2], the “Effect on water licks of the rats during the punished session compared with the solvent control groups” value is listed as “increase water licks of the rats during the punished session” and the “Water licks of rats during punished session” value was determined as 477.22 ± 66.66.
